Results: patent publication EP4733298A1, “NOVEL TRPM4 ANTAGONISTS AND MEDICAL USE THEREOF” (Universitätsklinikum Hamburg-Eppendorf, priority 2024, dated 2026)

Columns and labels:
human TRPM4 = target: T1, human TRPM4 (Homo sapiens, UniProt Q8TD43); experiment: QPatch assay (automated patch clamp), TRPM4; type: cell-based; conditions: human TRPM4-expressing HEK293 cells, read-out: TRP M4 IC50
T1 construct: host or cells: HEK293, stably expressing
Description: QPatchHTX, an automated electrophysiology platform, was used in single hole mode. One day before use human TRPM4- or TRPM5-expressing HEK293 cells were seeded in a T75 flask at a density of 53k cells per cm^2 and at passages < 23. […] The extracellular solution was (in mM): CaCl2 (7), MgCl2 (2), KCl (5), HEPES (10), NaCl (70), NMDG (70); pH 7.4 with NaOH. The intracellular solution was (in mM): HEPES (10), NMDG (100), NaCl (50), EGTA (20), MgCl2 (1), CaCl2 (21); pH 7.2 with HCl. […] This protocol was repeated every 7 seconds. […] FFA was used as reference compound and applied cumulatively with each concentration incubating at a minimum of 20 voltage protocol runs (140 seconds) with the current after addition of FFA being calculated as full block. […] Each compound was measured at least 3 time independently.

[1] = target: T2, 5-HT2A (h) (agonist radioligand) (Homo sapiens, UniProt P28223); experiment: In vitro pharmacology (SafetyScreen44), 5-HT2A binding; conditions: Ref. CMP (±)DOI, read-out: Inhibiton (%) 5-HT2A (h) (agonist radioligand)
T2 construct: purchased Eurofins Cerep Safetyscreen 44 Panel; Study ID FR095-0009609
T2 sequence (P28223 whole entry): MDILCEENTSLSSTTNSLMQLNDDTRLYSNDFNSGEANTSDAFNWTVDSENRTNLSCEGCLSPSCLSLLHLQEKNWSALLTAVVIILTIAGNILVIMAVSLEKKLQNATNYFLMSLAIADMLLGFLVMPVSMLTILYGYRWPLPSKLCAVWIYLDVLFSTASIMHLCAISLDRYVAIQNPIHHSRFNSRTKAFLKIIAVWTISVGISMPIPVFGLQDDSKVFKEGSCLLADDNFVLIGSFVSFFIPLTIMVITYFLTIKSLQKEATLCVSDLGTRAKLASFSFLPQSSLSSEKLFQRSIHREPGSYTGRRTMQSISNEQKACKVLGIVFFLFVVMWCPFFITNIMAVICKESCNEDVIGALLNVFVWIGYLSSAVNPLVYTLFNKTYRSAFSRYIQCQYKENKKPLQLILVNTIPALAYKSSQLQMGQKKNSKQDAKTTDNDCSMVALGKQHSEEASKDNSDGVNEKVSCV
Description: (§1) In vitro assays were used to test absorption, distribution, metabolism, excretion and toxicity (ADMET) parameters for selected compounds. Compound absorption was assessed using parallel artificial membrane permeability (PAMPA) and Caco-2 cell permeability assays (cut-off criterion > 2 × 10^-6 cm s^-1). Compound toxicity was evaluated by measuring inhibition of cytochrome P450 enzymes (CYP), the potassium channel hERG, and TRPM5, with all parameters meeting acceptable criteria (Table 1). To assess potential off-target activity of the compounds that could be relevant for safety in humans, in vitro pharmacology tests using the commercially available and widely used SafetyScreen44 interaction panel^60 covering eight protein families were conducted (Tables 2 and 3). The lack of off-target activities on hERG channels and in vitro pharmacology profiles are promising and consistent with absence of toxicity during in vivo pharmacokinetic assessments, see below. Table 1. In vitro ADMET profile of Series 1 compounds.
(§2) Table 2. In vitro pharmacology profile of representative compounds disclosed herein, i.e. of benzoxazoles according to Formula (I) (CMP 343 and 354). Only inhibitions above 50% relative to the reference compound are shown and considered active. […]

[2] = target: T3, norepinephrine transporter (h) (antagonist radioligand) (Homo sapiens, UniProt P23975); experiment: In vitro pharmacology (SafetyScreen44), norepinephrine transporter binding; conditions: Ref. CMP protriptyline, read-out: Inhibiton (%) norepinephrine transporter (h) (antagonist radioligand)
T3 construct: purchased Eurofins Cerep Safetyscreen 44 Panel; Study ID FR095-0009609
T3 sequence (P23975 whole entry): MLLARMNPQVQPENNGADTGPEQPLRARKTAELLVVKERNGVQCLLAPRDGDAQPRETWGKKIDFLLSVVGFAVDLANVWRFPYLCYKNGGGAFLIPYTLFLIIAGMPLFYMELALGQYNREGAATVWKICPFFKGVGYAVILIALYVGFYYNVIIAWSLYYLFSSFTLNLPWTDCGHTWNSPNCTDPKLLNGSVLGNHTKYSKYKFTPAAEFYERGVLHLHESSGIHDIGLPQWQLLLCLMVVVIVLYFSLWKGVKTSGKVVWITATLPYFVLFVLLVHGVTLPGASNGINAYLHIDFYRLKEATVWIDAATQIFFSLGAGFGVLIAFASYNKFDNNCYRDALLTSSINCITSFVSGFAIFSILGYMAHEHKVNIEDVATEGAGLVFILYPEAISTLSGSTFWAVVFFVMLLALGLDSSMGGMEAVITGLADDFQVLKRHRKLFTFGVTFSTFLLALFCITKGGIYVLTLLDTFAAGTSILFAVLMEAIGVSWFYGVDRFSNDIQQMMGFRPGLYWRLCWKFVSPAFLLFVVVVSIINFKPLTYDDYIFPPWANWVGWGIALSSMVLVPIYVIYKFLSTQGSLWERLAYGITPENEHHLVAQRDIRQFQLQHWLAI
Description: as §1, §2

[3] = target: T4, kappa (h) (KOP) (agonist radioligand) (Homo sapiens, UniProt P41145); experiment: In vitro pharmacology (SafetyScreen44), kappa opioid receptor binding; conditions: Ref. CMP U50488, read-out: Inhibiton (%) kappa (h) (KOP) (agonist radioligand)
T4 construct: purchased Eurofins Cerep Safetyscreen 44 Panel; Study ID FR095-0009609
T4 sequence (P41145 whole entry): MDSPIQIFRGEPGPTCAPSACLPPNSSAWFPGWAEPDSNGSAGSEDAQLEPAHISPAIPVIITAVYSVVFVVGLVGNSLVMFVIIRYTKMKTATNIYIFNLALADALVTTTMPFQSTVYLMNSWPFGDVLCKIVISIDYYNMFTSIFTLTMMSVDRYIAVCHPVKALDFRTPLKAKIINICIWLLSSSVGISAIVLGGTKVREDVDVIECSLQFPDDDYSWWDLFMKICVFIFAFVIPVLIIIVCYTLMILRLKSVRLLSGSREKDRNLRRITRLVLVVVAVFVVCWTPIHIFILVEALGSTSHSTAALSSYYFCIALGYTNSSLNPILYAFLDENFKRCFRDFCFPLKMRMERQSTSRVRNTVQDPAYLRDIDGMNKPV
Description: as §1, §2

COX1 (h) = target: T5, COX1 (h) (Homo sapiens, UniProt P23219); experiment: In vitro pharmacology (SafetyScreen44), COX1; type: biochemical; conditions: Ref. CMP Diclofenac, read-out: Inhibiton (%) COX1 (h)
T5 construct: purchased Eurofins Cerep Safetyscreen 44 Panel; Study ID FR095-0009609
T5 sequence (P23219 24-599): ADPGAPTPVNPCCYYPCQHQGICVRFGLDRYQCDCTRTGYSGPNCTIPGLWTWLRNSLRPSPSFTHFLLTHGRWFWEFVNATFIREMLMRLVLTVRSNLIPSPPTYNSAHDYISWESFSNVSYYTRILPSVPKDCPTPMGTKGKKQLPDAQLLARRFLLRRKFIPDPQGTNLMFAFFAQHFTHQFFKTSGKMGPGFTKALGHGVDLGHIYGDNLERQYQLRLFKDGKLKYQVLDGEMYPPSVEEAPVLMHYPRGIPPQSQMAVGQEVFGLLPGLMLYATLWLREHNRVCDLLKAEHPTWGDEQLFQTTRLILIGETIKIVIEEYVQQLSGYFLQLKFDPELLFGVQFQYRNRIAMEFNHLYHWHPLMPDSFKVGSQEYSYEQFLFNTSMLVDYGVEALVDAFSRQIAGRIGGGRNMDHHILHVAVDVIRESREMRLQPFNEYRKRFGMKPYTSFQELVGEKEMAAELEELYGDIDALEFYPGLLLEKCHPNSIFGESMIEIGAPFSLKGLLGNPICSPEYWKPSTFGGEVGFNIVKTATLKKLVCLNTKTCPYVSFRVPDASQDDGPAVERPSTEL
Description: as §1, §2

[4] = target: T6, dopamine transporter (h) (antagonist radioligand) (Homo sapiens, UniProt Q01959); experiment: In vitro pharmacology (SafetyScreen44), dopamine transporter binding; conditions: Ref. CMP BTCP, read-out: Inhibiton (%) dopamine transporter (h) (antagonist radioligand)
T6 construct: purchased Eurofins Cerep Safetyscreen 44 Panel; Study ID FR095-0009609
T6 sequence (Q01959 whole entry): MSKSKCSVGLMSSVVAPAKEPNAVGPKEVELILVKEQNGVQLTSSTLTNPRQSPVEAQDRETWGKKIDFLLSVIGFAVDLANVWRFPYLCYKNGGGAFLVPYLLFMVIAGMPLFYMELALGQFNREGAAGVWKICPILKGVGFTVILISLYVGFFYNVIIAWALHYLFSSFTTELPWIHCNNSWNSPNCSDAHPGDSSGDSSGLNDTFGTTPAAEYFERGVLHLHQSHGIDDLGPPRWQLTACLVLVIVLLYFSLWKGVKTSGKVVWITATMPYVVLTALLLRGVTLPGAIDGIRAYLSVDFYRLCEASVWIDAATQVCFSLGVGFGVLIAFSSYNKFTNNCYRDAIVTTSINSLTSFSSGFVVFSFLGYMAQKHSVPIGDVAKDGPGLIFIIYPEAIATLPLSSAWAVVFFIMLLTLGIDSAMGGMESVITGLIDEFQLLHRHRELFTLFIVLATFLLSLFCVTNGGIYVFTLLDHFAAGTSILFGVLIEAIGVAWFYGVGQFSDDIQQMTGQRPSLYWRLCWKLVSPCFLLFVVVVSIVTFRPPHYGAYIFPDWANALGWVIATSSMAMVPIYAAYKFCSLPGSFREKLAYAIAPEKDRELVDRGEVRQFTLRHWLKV
Description: as §1, §2

[5] = target: T7, 5-HT2B (h) (agonist radioligand) (Homo sapiens, UniProt P41595); experiment: In vitro pharmacology (SafetyScreen44), 5-HT2B binding; conditions: Ref. CMP (±)DOI, read-out: Inhibiton (%) 5-HT2B (h) (agonist radioligand)
T7 construct: purchased Eurofins Cerep Safetyscreen 44 Panel; Study ID FR095-0009609
T7 sequence (P41595 whole entry): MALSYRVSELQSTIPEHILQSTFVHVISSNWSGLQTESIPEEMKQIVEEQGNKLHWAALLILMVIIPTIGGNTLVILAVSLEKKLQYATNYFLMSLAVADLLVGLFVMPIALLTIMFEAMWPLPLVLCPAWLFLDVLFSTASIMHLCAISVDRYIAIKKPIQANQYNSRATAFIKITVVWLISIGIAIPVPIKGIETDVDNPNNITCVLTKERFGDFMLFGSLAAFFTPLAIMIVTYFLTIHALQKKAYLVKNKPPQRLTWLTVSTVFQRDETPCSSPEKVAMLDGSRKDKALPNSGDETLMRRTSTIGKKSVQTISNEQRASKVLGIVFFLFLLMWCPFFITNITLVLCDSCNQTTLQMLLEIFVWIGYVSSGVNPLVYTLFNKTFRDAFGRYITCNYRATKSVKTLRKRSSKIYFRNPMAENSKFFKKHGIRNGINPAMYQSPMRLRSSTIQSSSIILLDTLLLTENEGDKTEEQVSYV
Description: as §1, §2

T1 sequence (Q8TD43 whole entry): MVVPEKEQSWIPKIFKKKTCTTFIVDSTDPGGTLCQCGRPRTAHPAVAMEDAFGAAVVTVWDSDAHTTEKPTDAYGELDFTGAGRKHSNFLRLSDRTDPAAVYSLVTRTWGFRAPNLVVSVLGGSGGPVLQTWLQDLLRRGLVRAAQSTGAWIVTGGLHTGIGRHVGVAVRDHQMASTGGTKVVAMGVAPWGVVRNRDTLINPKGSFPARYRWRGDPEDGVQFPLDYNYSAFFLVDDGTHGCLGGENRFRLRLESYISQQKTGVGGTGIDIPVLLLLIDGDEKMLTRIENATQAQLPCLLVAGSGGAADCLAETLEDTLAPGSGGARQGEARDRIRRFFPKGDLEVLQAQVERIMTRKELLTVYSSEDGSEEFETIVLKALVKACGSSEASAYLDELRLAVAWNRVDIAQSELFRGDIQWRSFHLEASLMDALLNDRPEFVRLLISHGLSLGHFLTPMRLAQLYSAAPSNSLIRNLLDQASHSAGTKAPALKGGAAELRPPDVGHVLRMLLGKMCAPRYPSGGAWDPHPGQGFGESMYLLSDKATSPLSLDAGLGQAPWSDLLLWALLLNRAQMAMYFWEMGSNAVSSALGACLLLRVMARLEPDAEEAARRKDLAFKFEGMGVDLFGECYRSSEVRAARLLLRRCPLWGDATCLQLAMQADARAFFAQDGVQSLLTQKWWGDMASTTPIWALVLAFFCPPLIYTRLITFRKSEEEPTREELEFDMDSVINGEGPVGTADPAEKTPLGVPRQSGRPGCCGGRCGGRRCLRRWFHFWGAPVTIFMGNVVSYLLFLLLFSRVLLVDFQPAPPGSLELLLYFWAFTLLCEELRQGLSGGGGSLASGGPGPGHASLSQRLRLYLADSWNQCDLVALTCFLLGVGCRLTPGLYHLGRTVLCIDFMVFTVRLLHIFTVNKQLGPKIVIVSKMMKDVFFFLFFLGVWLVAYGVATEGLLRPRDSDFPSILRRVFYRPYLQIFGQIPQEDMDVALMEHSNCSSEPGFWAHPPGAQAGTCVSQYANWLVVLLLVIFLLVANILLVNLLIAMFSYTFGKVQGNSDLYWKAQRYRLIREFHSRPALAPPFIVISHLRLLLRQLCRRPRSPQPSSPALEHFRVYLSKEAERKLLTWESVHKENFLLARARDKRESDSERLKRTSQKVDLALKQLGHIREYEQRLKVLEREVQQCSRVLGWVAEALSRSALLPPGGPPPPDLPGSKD

SMILES | IC50 (human TRPM4) [nM] | inhibition at 5 µM [1] [%] | inhibition at 5 µM [2] [%] | inhibition at 5 µM [3] [%] | inhibition at 5 µM (COX1 (h)) [%] | inhibition at 5 µM [4] [%] | inhibition at 5 µM [5] [%]
Cc1noc(-c2csc(S(=O)(=O)Nc3ccccc3C(F)(F)F)c2)c1C [CMP157] | 630 |  |  |  |  |  | 
Fc1cccc(-c2ccccc2NCc2nc3ccccc3o2)c1 [CMP343] |  | 51 | 78 | 63 | 56 | 70 | 70
Cc1ccc(-c2ccccc2NCc2nc3ccccc3o2)s1 [CMP354] |  | 73 | 74 |  |  | 64 | 65
